This assay concerns PMA-induced increase in mouse ear thickness and weight. In words: Topical PMA-induced acute atopic dermatitis in ICR mice. The format is in vivo. As to conditions: ICR female mice, 0.3 mg/ear/bid topical. On the procedure:
ICR female mice (20-30 g), five mice or nine mice/group, were used in this study. Five micrograms of PMA (phorbol 12-myristate 13-acetate) in 20 μL of ethanol was applied topically to the anterior and posterior surface of the right ear of each mouse. Twenty microliters of vehicle (ethanol/acetone ([…])=1/1); 0.3 mg of EX. 68 ([…]); EX. 76, EX. 50, EX. 92 or EX. 65 (0.3 mg […]) were administrated to the same areas 30 minutes before and 15 minutes after PMA application. The thickness of right ears of each mouse was measured 6 hours after PMA stimulation. Ear weight of right ears of each mouse was weighed with analytical balance Each value represents the Mean±Sem. Statistical significance compared with model groups (*P<0.05; **P<0.01). Tables 5-1, 5-2 and 5-3 listed the inhibitory effect on PMA-induced increase in mouse ear thickness and weight. The compounds of the present invention have a good inhibitory effect on PMA-induced increase in mouse ear thickness and weight.

Marks after values point to notes of the source that are not given here.

As to `CC(C)(O)c1cnc2cc(Nc3ncc(Cl)c(NC4CCN(c5ccc(C#N)cn5)CC4)n3)ccn12` [Example 68, 6-(4-((5-chloro-2-((3-(2-hydroxypropan-2-yl)imidazo[1,2-a]pyridin-7-yl)amino)pyrimidin-4-yl)amino)piperidin-1-yl)nicotinonitrile], the “Weight Inhibition ratio” value is given as 80.6%. Under “30 minutes before and 15 minutes after PMA, 6 hours after PMA, Mean±Sem”, the “thickness (right ear)” value is 0.219 ± 0.007** mm. The “Weight (right ear)” value (30 minutes before and 15 minutes after PMA, Mean±Sem) was 18.11 ± 1.14* mg. For the same molecule, the “thickness Inhibition ratio” value (6 hours after PMA) was found to be 86.6%.

The values above are taken from patent publication US10683297B2 (Sunshine Lake Pharma Co., Ltd., priority 2017, dated 2020).
